Results from PubChem BioAssay AID256 (DTP/NCI, 2004).
Values joined by “and” are separate entries in the source; they are usually repeats but may differ in a detail not shown here. Identical values can stand only once. Inconclusive results and toxic doses are left out. The calls were made as follows: active = survival T/C of 150% or more; inactive = T/C below 125% in these data.

Test system: CD2F1 mice, L1210 leukemia ip, survival T/C
Test: NCI In Vivo Anticancer Drug Screen. Data for tumor model L1210 Leukemia (intraperitoneal) in CD2F1 (CDF1) mice
Details: endpoint: mean survival time, higher = longer survival
Outline: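 Activity against a transplanted murine tumor was judged by comparing the compound group with a vehicle group. The outcome in the treated animals was divided by that in the controls.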

[1] = dose: 50.0 mg/kg/injection, schedule: Q01DX009 (ip), vehicle: Klucel (hydroxypropylcellulose) (HPC)
[2] = dose: 100.0 mg/kg/injection, schedule: Q01DX009 (ip), vehicle: Klucel (hydroxypropylcellulose) (HPC)
[3] = dose: 200.0 mg/kg/injection, schedule: Q01DX009 (ip), vehicle: Klucel (hydroxypropylcellulose) (HPC)
[4] = dose: 100.0 mg/kg/injection, schedule: Q01DX001 (ip), vehicle: saline with Tween-80
[5] = dose: 100.0 mg/kg/injection, schedule: Q04DX003 (ip), vehicle: saline with Tween-80
[6] = dose: 200.0 mg/kg/injection, schedule: Q04DX003 (ip), vehicle: saline with Tween-80
[7] = dose: 400.0 mg/kg/injection, schedule: Q04DX003 (ip), vehicle: saline with Tween-80
[8] = dose: 50.0 mg/kg/injection, schedule: Q04DX003 (ip), vehicle: saline with Tween-80
[9] = dose: 100.0 mg/kg/injection, schedule: Q01DX009 (ip), vehicle: saline with Tween-80
[10] = dose: 200.0 mg/kg/injection, schedule: Q01DX009 (ip), vehicle: saline with Tween-80
[11] = dose: 400.0 mg/kg/injection, schedule: Q01DX009 (ip), vehicle: saline with Tween-80

Measured: T/C

CCCCCCCCCCCCCCCC(=O)N(CCC#N)C(C)(C)CCC(C)(C)N(CCC#N)C(=O)CCCCCCCCCCCCCCC
inactive: dose: 25.0 mg/kg/injection, schedule: Q01DX009 (ip), vehicle: Klucel (hydroxypropylcellulose) (HPC) 95 % of control | [1] 95 % of control | [2] 88 % of control | [3] 88 % of control

OCCOC1CCC(O)C2CCCCC12 (centres undefined)
inactive: dose: 100.0 mg/kg/injection, schedule: Q01DX001 (ip), vehicle: saline sonified 103 % of control | dose: 200.0 mg/kg/injection, schedule: Q01DX001 (ip), vehicle: saline sonified 98 % of control | dose: 400.0 mg/kg/injection, schedule: Q01DX001 (ip), vehicle: saline sonified 109 % of control

CCOC(=O)CCCC/C(C)=N\N=C(C(C)C)C(C)C
inactive: dose: 75.0 mg/kg/injection, schedule: Q01DX001 (ip), vehicle: other 103 % of control | dose: 150.0 mg/kg/injection, schedule: Q01DX001 (ip), vehicle: other 97 % of control | dose: 300.0 mg/kg/injection, schedule: Q01DX001 (ip), vehicle: other 89 % of control

Nc1cc(Cl)c(O)c(Cl)c1
inactive: [4] 92 % of control

O=c1cc(CO)[nH]c(=O)[nH]1
inactive: dose: 12.5 mg/kg/injection, schedule: Q01DX009 (ip), vehicle: other 91 % of control | dose: 25.0 mg/kg/injection, schedule: Q01DX009 (ip), vehicle: other 94 % of control | dose: 50.0 mg/kg/injection, schedule: Q01DX009 (ip), vehicle: other 91 % of control | dose: 100.0 mg/kg/injection, schedule: Q01DX009 (ip), vehicle: other 92 % of control | dose: 200.0 mg/kg/injection, schedule: Q01DX009 (ip), vehicle: other 97 % of control

O=S1(=O)C2CCCCCC2(N2CCOCC2)C1C1CCCCC1 (centres undefined)
inactive: [5] 95 % of control | [6] 95 % of control | [7] 97 % of control

CC(=O)OC1C(OC(C)=O)C2C(C)(C)CCCC2(C)C2Cc3occc3C(C)C12 (centres undefined)
inactive: [8] 96 % of control | dose: 50.0 mg/kg/injection, schedule: Q04DX003 (ip), vehicle: saline 102 % of control | [5] 98 % of control | dose: 100.0 mg/kg/injection, schedule: Q04DX003 (ip), vehicle: saline 98 % of control | [6] 96 % of control | dose: 200.0 mg/kg/injection, schedule: Q04DX003 (ip), vehicle: saline 96 % of control | [7] 91 % of control | dose: 400.0 mg/kg/injection, schedule: Q04DX003 (ip), vehicle: saline 96 % of control

ClC1=NC(Cl)C(Cl)=N/C1=N\c1ncn[nH]1 (centres undefined)
inactive: dose: 25.0 mg/kg/injection, schedule: Q04DX003 (ip), vehicle: saline with Tween-80 96 % of control | [8] 95 % of control | dose: 100.0 mg/kg/injection, schedule: Q04DX003 (ip), vehicle: saline sonified 93 % of control

OCCN(c1ccccc1)C1CCCCC1
inactive: [1] 113 % of control | [2] 102 % of control | [3] 106 % of control

CSc1nc(N)c(N=O)c(=O)[nH]1
inactive: dose: 100.0 mg/kg/injection, schedule: Q01DX001 (ip), vehicle: Klucel (hydroxypropylcellulose) (HPC) 98 % of control | dose: 200.0 mg/kg/injection, schedule: Q01DX001 (ip), vehicle: Klucel (hydroxypropylcellulose) (HPC) 100 % of control | dose: 400.0 mg/kg/injection, schedule: Q01DX001 (ip), vehicle: Klucel (hydroxypropylcellulose) (HPC) 109 % of control

CC(C)=NNc1nc2c(N)ncnc2n1C1OC(CO)C(O)C1O (centres undefined)
inactive: dose: 12.5 mg/kg/injection, schedule: Q01DX005 (ip), vehicle: distilled water + Tween-80 97 % of control | dose: 12.5 mg/kg/injection, schedule: Q01DX005 (ip), vehicle: water 96 % of control | dose: 25.0 mg/kg/injection, schedule: Q01DX005 (ip), vehicle: distilled water + Tween-80 97 % of control | dose: 25.0 mg/kg/injection, schedule: Q01DX005 (ip), vehicle: water 94 % of control | dose: 50.0 mg/kg/injection, schedule: Q01DX005 (ip), vehicle: distilled water + Tween-80 97 % of control | dose: 50.0 mg/kg/injection, schedule: Q01DX005 (ip), vehicle: water 99 % of control | dose: 100.0 mg/kg/injection, schedule: Q01DX005 (ip), vehicle: distilled water + Tween-80 97 % of control | dose: 100.0 mg/kg/injection, schedule: Q01DX005 (ip), vehicle: water 99 % of control | dose: 200.0 mg/kg/injection, schedule: Q01DX005 (ip), vehicle: distilled water + Tween-80 100 % of control | dose: 200.0 mg/kg/injection, schedule: Q01DX005 (ip), vehicle: water 97 % of control

Brc1c2ccccc2c(Br)c2ccccc12
inactive: dose: 100.0 mg/kg/injection, schedule: Q04DX002 (ip), vehicle: Klucel (hydroxypropylcellulose) (HPC) 86 % of control | dose: 200.0 mg/kg/injection, schedule: Q04DX002 (ip), vehicle: Klucel (hydroxypropylcellulose) (HPC) 114 % of control | dose: 400.0 mg/kg/injection, schedule: Q04DX002 (ip), vehicle: Klucel (hydroxypropylcellulose) (HPC) 86 % of control

Nc1cccc(CC(=O)Nc2cccc(S(=O)(=O)F)c2)c1
inactive: [4] 96 % of control | dose: 200.0 mg/kg/injection, schedule: Q01DX001 (ip), vehicle: saline with Tween-80 95 % of control | dose: 400.0 mg/kg/injection, schedule: Q01DX001 (ip), vehicle: saline with Tween-80 90 % of control

CCOC(=O)C(OCC)c1ccccc1 (centres undefined)
inactive: [9] 105 % of control | [10] 101 % of control | [11] 95 % of control

CCOC(=O)NC(O)C(Cl)(Cl)Cl (centres undefined)
inactive: [9] 97 % of control | [10] 106 % of control | [11] 112 % of control

CC(C)C(=O)OCCOc1ccccc1
inactive: [9] 100 % of control | [10] 100 % of control | [11] 98 % of control

O=C(O)/C=C\C(=O)Nc1ccccn1
inactive: dose: 5.0 mg/kg/injection, schedule: Q01DX009 (ip), vehicle: saline 94 % of control | dose: 5.0 mg/kg/injection, schedule: Q04DX003 (ip), vehicle: saline 105 % of control and 106 % of control | dose: 10.0 mg/kg/injection, schedule: Q01DX009 (ip), vehicle: saline 92 % of control | dose: 10.0 mg/kg/injection, schedule: Q04DX003 (ip), vehicle: saline 97 % of control and 105 % of control | dose: 20.0 mg/kg/injection, schedule: Q04DX003 (ip), vehicle: saline 97 % of control and 98 % of control | dose: 30.0 mg/kg/injection, schedule: Q01DX009 (ip), vehicle: saline 100 % of control | dose: 60.0 mg/kg/injection, schedule: Q01DX009 (ip), vehicle: saline 105 % of control

O=C1OCCC1n1ccc(=O)[nH]c1=O (centres undefined)
inactive: dose: 100.0 mg/kg/injection, schedule: Q04DX003 (ip), vehicle: Klucel (hydroxypropylcellulose) (HPC) 102 % of control | dose: 200.0 mg/kg/injection, schedule: Q04DX003 (ip), vehicle: Klucel (hydroxypropylcellulose) (HPC) 96 % of control | dose: 400.0 mg/kg/injection, schedule: Q04DX003 (ip), vehicle: Klucel (hydroxypropylcellulose) (HPC) 102 % of control

N#CCCC(=O)c1nc(N)nc(N)n1
inactive: dose: 50.0 mg/kg/injection, schedule: Q01DX009 (ip), vehicle: saline with Tween-80 91 % of control | [9] 91 % of control | [10] 91 % of control
